This note sets out measurements from patent US9789159B2, “Diagnosis and treatment of prostate cancer” (The Research Foundation for The State University of New York, priority 2011, dated 2017).

Data set [1] has as its system LNCaP cell line. The following applies: VEGF 10 ng/mL or 10 nM DHT for 3, 6, 12 and 24 hr, Western blot densitometry, P<0.05 vs control. The procedure: In this example, to determine the responsiveness of Hexim-1 to androgen and VEGF in the epithelial prostate LNCap cell line, LNCap cells were treated with VEGF (10 ng/mL) or 10 nM dihydrotestosterone (DHT) for 3, 6, 12 and 24 hours, with the change in expression of Hexim-1 protein evaluated by Western blot.
FIG. 2A illustrates the epithelial prostate LNCaP cell line which was treated with VEGF (10 ng/ml) or 10 nM dihydrotestosterone (DHT) 10 nM for 3, 6, 12 and 24 hr. Protein extracts were obtained from each time point and the changes in the protein expression of Hexim-1, p-Akt and GAPDH evaluated by Western blot. The histogram indicates the ratio between p-AKT and GAPDH and the ratio of Hexim-1 to GAPDH as obtained by densitometry analysis of the Western blots. Data are expressed as means±SE of 4 independent experiments.
(In general: In western blotting, separated proteins are transferred to a membrane and probed.)

Data set [2] concerns PC3 cells. The following applies: androgen independent PC3 cells; 10 nM DHT for indicated times; Western blot. On the procedure:
In FIG. 2B, PC3 cells were treated with 10 nM DHT for indicated times, cells were collected and cellular extracts were prepared and analyzed for Hexim-1 and GAPDH. The histogram indicates a ratio between Hexim-1 and GAPDH. Data are expressed as means±SE of 3 independent experiments.

Data set [3] concerns the target androgen receptor (AR) (UniProt P19091).
UniProt P19091, sequence (P19091 whole entry): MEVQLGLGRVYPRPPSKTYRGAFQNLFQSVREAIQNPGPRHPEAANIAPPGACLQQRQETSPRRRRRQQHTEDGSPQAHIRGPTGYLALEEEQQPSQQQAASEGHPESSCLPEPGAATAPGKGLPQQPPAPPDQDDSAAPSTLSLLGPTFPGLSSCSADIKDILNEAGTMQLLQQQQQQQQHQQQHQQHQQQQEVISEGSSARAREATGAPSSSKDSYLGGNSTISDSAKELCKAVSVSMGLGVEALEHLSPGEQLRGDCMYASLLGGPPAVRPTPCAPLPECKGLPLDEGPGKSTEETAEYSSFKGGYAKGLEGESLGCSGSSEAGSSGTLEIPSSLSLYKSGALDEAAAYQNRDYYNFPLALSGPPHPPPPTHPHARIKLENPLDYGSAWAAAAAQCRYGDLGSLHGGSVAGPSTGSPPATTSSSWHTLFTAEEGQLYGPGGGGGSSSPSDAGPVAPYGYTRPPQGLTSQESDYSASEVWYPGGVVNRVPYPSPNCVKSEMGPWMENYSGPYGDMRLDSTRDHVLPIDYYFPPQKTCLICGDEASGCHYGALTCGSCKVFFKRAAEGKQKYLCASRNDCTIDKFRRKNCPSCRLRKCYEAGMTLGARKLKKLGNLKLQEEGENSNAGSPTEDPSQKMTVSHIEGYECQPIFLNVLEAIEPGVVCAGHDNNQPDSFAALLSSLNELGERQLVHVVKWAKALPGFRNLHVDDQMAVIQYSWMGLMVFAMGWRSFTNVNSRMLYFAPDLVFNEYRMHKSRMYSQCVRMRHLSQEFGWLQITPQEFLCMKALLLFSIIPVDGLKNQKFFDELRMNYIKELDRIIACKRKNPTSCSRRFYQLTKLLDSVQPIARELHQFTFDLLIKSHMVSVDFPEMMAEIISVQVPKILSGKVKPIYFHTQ

Consider `C[C@]12CCC(=O)C[C@@H]1CC[C@@H]1[C@@H]2CC[C@]2(C)[C@@H](O)CC[C@@H]12` [DHT, dihydrotestosterone], for which, in data set [1], the “Hexim-1 protein levels (ratio of Hexim-1 to GAPDH)” value is listed as “induced”; the “p-Akt levels (ratio between p-AKT and GAPDH)” value is “correlated with the increased Hexim-1 expression”. Moreover, the “Hexim-1 levels (ratio between Hexim-1 and GAPDH)” value in data set [2] is given as “not changed”.
With VEGF, in data set [1], the “Hexim-1 protein levels (ratio of Hexim-1 to GAPDH)” value is reported as “induced”; the “p-Akt levels (ratio between p-AKT and GAPDH)” value is “correlated with the increased Hexim-1 expression”.
Consider cyclin dependent kinase 9 (Cdk9), for which the “serine-81 phosphorylation of the androgen receptor (Western blot after immunoprecipitation)” value in data set [3] was “the serine phosphorylation of AR is significantly increased”.
